Columns and labels:
[1] = system: Drechslera graminea; experiment: Drechslera graminea test (barley)/seed treatment (syn. Helminthosporium gramineum); format: in vivo; conditions: approx. 3 weeks after sowing
Description: Drechslera graminea Test (Barley)/Seed Treatment (syn. Helminthosporium gramineum)
(§1) The active compounds are used as a powder for dry seed treatment. They are prepared by extending the active compound in question with rock meal to give a finely pulverulent mixture which guarantees uniform distribution on the seed surface.
(§2) To carry out the seed treatment, the infected seed and the seed-dressing product are shaken for 3 minutes in a sealed glass flask.
The seed, embedded in screened, moist standard soil in sealed Petri dishes, is exposed to a temperature of 4° C. for 10 days in a refrigerator. This triggers germination of the barley and, if appropriate, of the fungal spores. 2×50 pregerminated barley kernels are subsequently sown in standard soil at a depth of 3 cm and grown in a greenhouse at a temperature of approximately 18° in seed boxes which are exposed to the light for 15 hours per day.
Approximately 3 weeks after sowing, the plants are evaluated for symptoms of barley leaf stripe.

[2] = system: Botrytis cinerea; experiment: Botrytis test (beans)/protective; format: in vivo; conditions: protective, 3 days after inoculation
Description: Botrytis Test (Beans)/Protective
To produce a suitable preparation of active compound, either commercially available formulations of active compound (individual active compound or active compound combinations) or one part by weight of active compound is mixed with 4.7 parts by weight of solvent (acetone) and 0.3 parts by weight of emulsifier (alkyl-aryl polyglycol ether), and the mixture is diluted with water to the desired concentration.
To test for protective activity, young plants are sprayed with the preparation of active compound until dripping wet. After the spray coating has dried on, 2 small pieces of agar covered with Botrytis cinerea are placed on each leaf. The inoculated plants are placed in a darkened humid chamber at 20° C. 3 days after the inoculation, the size of the infected spots on the leaves is evaluated.
Active compounds, active compound concentrations and test results can be seen from the tables which follow.

[3] = system: Fusarium nivale; experiment: Fusarium nivale test (wheat)/seed treatment; format: in vivo; conditions: approx. 3 weeks after sowing
Description: Fusarium nivale Test (Wheat)/Seed Treatment
as §1, §2
2×100 wheat kernels are sown in standard soil at a depth of 1 cm and grown in the greenhouse at a temperature of approximately 10° C. and a relative atmospheric humidity of approximately 95% in seed boxes which are exposed to the light for 15 hours per day.
Approximately 3 weeks after sowing, the plants are evaluated for snow blight symptoms.

[4] = system: Penicillium custosum; experiment: Agar plate test with Penicillium custosum; format: cell-based; conditions: 100 ppm, inhibition of growth after 6 days
Description: Agar Plate Test With Penicillium custosum
39 parts by weight of potato dextrose agar
20 parts by weight of agar
are dissolved in 1,000 ml of distilled water and the solution is kept in an autoclave at 121° C. for 20 minutes.
50 parts by weight of acetone
950 parts by weight of water
Ratio of the amount of solvent to nutrient medium: 1:100
To produce a suitable preparation of active compound, 1 part by weight of active compound is mixed with the stated amount of solvent.
The concentrate is thoroughly mixed, in the stated ratio, with the liquid nutrient medium, and the mixture is poured into Petri dishes.
When the nutrient medium has cooled and solidified, the plates are inoculated with the following microorganisms and are incubated at about 21° C.: Penicillium custosum.
Evaluation is carried out after 6 days, the inhibition of growth being used as a measure of the action of the products.

[5] = system: Leptosphaeria nodorum; experiment: Leptosphaeria nodorum test (wheat)/protective; format: in vivo; conditions: protective, 125 g/ha, 10 days after inoculation
Description: Leptosphaeria nodorum Test (Wheat)/Protective
(§3) To produce a suitable preparation of active compound, commercially available formulations of active compound are diluted with water to the desired concentration.
(§4) To test for protective activity, young plants are sprayed with the preparation of active compound at the application rate shown.
After the spray coating has dried on, the plants are sprayed with a spore suspension of Leptosphaeria nodorum. The plants remain for 48 hours in an incubation cabin at 20° C. and 100% relative atmospheric humidity.
The plants are placed in a greenhouse at a temperature of about 15° C. and a relative atmospheric humidity of about 80%.
Evaluation is effected 10 days after the inoculation.

[6] = system: Erysiphe graminis f.sp. hordei; experiment: Erysiphe test (barley)/curative; format: in vivo; conditions: curative, 7 days after inoculation
Description: Erysiphe Test (Barley)/Curative
as §3
To test for curative activity, young plants are dusted with spores of Erysiphe graminis f.sp. hordei. 48 hours after the inoculation, the plants are sprayed with the preparation of active compound at the application rate shown.
(§5) The plants are placed in a greenhouse at a temperature of about 20° C. and a relative atmospheric humidity of about 80%, in order to promote the development of mildew pustules.
(§6) Evaluation is carried out 7 days after the inoculation.
The expected degree of effectiveness in % of the untreated control was calculated using the equation [formula]
in which x and y denote, respectively, the degree of effectiveness—expressed in % of the untreated control—obtained by the two preparations when used separately. If the actually observed degree of effectiveness of the active compound combination exceeds the value calculated for the expected degree of effectiveness (E) using the abovementioned formula, then there is a superadditive, i.e. synergistic, effect.

[7] = system: Erysiphe graminis f.sp. hordei; experiment: Erysiphe test (barley)/protective; format: in vivo; conditions: protective, 125 g/ha, 7 days after inoculation
Description: Erysiphe Test (Barley)/Protective
as §3, §4
After the spray coating has dried on, the plants are dusted with spores of Erysiphe graminis f.sp. hordei.
as §5, §6

[8] = system: Erysiphe graminis f.sp. tritici; experiment: Erysiphe test (wheat)/protective; format: in vivo; conditions: protective, 125 g/ha, 7 days after inoculation
Description: Erysiphe Test (Wheat)/Protective
as §3, §4
After the spray coating has dried on, the plants are dusted with spores of Erysiphe graminis f.sp. tritici.
as §5
Evaluation is carried out 7 days' after the inoculation.

CCCCc1c(C)nc(NCC)nc1O [Ethirimol, ethirimol]
Degree of effectiveness in % of the untreated control ([1]; 100 mg/kg of seed): 8%

O=c1c2cc(F)ccc2nc(-n2cncn2)n1-c1ccc(Cl)cc1Cl [Fluquinconazole, fluquinconazole]
Degree of effectiveness in % of the untreated control ([2]; 25 ppm): 29%

N#Cc1c[nH]cc1-c1cccc(Cl)c1Cl [Fenpiclonil, fenpiclonil]
Degree of effectiveness in % of the untreated control ([1]; 50 mg/kg of seed): 41% | Degree of effectiveness in % of the untreated control ([3]; 25 mg/kg of seed): 6%

CNC(=O)/C(=N/OC)c1ccccc1COc1cc(C)ccc1C [(N), (E)-α-(methoxyimono)-N-methyl-2-(2,5-dimethyl-phenoxy-methyl)-benzacetamide]
Degree of effectiveness in % of the untreated control ([2]; 12.5 ppm): 64%

CNC(=O)/C(=N/OC)c1ccccc1Oc1ccccc1 [(M), (E)-α-(methoxyimino)-N-methyl-2-phenoxy-benzacetamide]
Degree of effectiveness in % of the untreated control ([2]; 25 ppm): 28%

CC1(C(=O)Nc2ccc(O)c(Cl)c2Cl)CCCCC1 [(I)]
Degree of effectiveness in % of the untreated control [4]: 24% | Degree of effectiveness in % of the untreated control [5]: 57% | Degree of effectiveness in % of the untreated control ([6]; 20 g/ha): 25% | Degree of effectiveness in % of the untreated control [7]: 18% | Degree of effectiveness in % of the untreated control ([1]; 50 mg/kg of seed): 41% | Degree of effectiveness in % of the untreated control ([1]; 100 mg/kg of seed): 43% | Degree of effectiveness in % of the untreated control ([3]; 25 mg/kg of seed): 0% | Degree of effectiveness in % of the untreated control ([3]; 100 mg/kg of seed): 22% | Degree of effectiveness in % of the untreated control ([2]; 5 ppm): 29% | Degree of effectiveness in % of the untreated control [8]: 25%

Cc1ccc2nc3sc(=O)sc3nc2c1 [Quinomethionate, quinomethionate]
Degree of effectiveness in % of the untreated control ([2]; 50 ppm): 0% | Degree of effectiveness in % of the untreated control [8]: 9%

CC(Cc1ccc(C(C)(C)C)cc1)CN1CCCCC1 (stereo not drawn) [Fenpropidin, fenpropidin]
Degree of effectiveness in % of the untreated control ([2]; 50 ppm): 0%

O=S([O-])CO.[Na+] [Sodium hydroxymethyl sulphinate]
Degree of effectiveness in % of the untreated control ([2]; 200 ppm): 32%

Cc1cc(C2CC2)nc(Nc2ccccc2)n1 [Ciprodinyl, cyprodinyl]
Degree of effectiveness in % of the untreated control ([2]; 5 ppm): 5%

Cc1ccc(C(C)NC(=O)C(NC(=O)OC(C)C)C(C)C)cc1 (stereo not drawn) [(O), 1-methylethyl [2-methyl-1-[[[1-(4-methylphenyl)ethyl]amino]carbonyl]propyl]-carbamate]
Degree of effectiveness in % of the untreated control ([2]; 200 ppm): 19%

Fc1ccc(C2(Cn3cncn3)OC2c2ccccc2Cl)cc1 (stereo not drawn) [Epoxiconazole, epoxiconazole]
Degree of effectiveness in % of the untreated control [5]: 57%

CCCN(CC)CC1COC2(CCC(C(C)(C)C)CC2)O1 (stereo not drawn) [(L), 8-(,1,1-dimethylethyl)-N-ethyl-N-propyl-1,4-dioxaspiro[4,5]decane-2-methaneamine]
Degree of effectiveness in % of the untreated control ([6]; 10 g/ha): 66% | Degree of effectiveness in % of the untreated control ([2]; 200 ppm): 0%

N#Cc1c[nH]cc1-c1cccc2c1OC(F)(F)O2 [Fludioxonil]
Degree of effectiveness in % of the untreated control ([2]; 1 ppm): 5%

CC(=O)O.CC(=O)O.CC(=O)O.NC(N)=NCCCCCCCCNCCCCCCCCN=C(N)N [Iminoctadine triacetate]
Degree of effectiveness in % of the untreated control [7]: 27%
